# Patent publication US6849607B2, “Galectin recognized photosensitizers for photodynamic therapy” (Health Research, Inc., priority 2001, dated 2005)
# How the values were obtained:
# Format in all cases: cell-based
# [1] = system: B16-F1 cells; experiment: In vitro photosensitizing efficacy in B16-F1 cells, low Gal-1 expression (MTT); settings: free lactose (100 μM)
# Protocol: (§1) For determining photosensitizing efficacy in B16-F1 and J774A.Cell were plated at 1×10^4 and 2×10^4 cells per well respectively in 96 well plates. After overnight incubation, compounds 1 and 4 at the same concentration (0-2 μM) were added. After further 3 hr incubation, cells were washed with PBS and irradiated with white light (0-4 joules). […] The cells were then incubated in complete media for 48 hrs and assayed for survival using the standard MTT assay.
# [2] = system: J774A.1 cells; experiment: In vitro photosensitizing efficacy in J774A.1 cells, high Gal-1 expression (MTT)
# Protocol: as §1
# [3] = system: J774A.1 cells; experiment: Photosensitizer uptake in J774A.1 cells (fluorescence/μg protein); settings: 1.0 μM, 3 and 24 hrs
# Protocol: In order to test the galectin-specificity of the carbohydrate conjugates, the uptake and photosensitizing efficacy of photosensitizers 1 and 4 was investigated in two cell lines; B16-F1 and J774A.1 known for low (15-20%) and high galectin-expression (80-85%) respectively 37. The cells were grown in DMEM with 10% FCS, maintained in 5% CO2, 95% air and 100% humidity. For uptake studies 1×10^6 cells were plated in 60 mm dishes. […] The cells were then gently removed from the dishes, 1.0 ml aliquots were transferred into 1 cm quartz cuvettes and their fluorescence was read on a PT1model ALBHA1 fluorimeter, at 701 nm using an excitation of wavelength of 414 nm. Protein determinations were done using Bio-rad protein assay, protein levels were determined from a standard curve. The data was represented as fluorescence/μg protein.
smiles,measurement,setting,value
"C=C(C=CCO[C@@H]1O[C@H](CO)[C@@H](O[C@@H]2O[C@H](CO)[C@H](O)[C@H](O)[C@H]2O)[C@H](O)[C@H]1O)CN1C(=O)c2c3nc(cc4[nH]c(cc5nc(cc6[nH]c2c(c6C)C1=O)C(CC)=C5C)c(CC)c4C)C(C)C3CCC(=O)OC (mixture of isomers) [4a, Lactose-Chlorin conjugate joined with diene linkage]",PDT efficacy on addition of free lactose,[1],almost completely inhibited
same,PDT efficacy on addition of free lactose,[2]; free lactose (100 μM),almost completely inhibited
same,phototoxicity compared to photosensitizer 1a,"[2]; high Gal-1 expression (80-85%), 1.0 μM",enhanced phototoxicity
same,drug uptake,[3],increased uptake
